The target of assay [1] is T1, Adrenergic receptor alpha-2 (Rattus norvegicus, UniProt P22086+P19328+P22909).
T1 sequence (P22086 whole entry): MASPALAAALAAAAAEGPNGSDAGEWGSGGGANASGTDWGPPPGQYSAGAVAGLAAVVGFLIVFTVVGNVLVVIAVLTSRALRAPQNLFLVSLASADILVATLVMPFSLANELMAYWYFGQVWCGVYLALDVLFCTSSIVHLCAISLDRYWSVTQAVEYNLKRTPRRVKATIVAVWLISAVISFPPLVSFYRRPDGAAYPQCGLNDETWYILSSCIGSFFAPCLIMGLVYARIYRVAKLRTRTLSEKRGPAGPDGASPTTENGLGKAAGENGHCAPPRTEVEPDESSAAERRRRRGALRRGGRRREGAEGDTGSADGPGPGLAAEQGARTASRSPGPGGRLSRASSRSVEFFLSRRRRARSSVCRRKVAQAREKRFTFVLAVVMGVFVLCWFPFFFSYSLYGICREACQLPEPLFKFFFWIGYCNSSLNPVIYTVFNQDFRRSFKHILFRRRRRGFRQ
T1 sequence (P19328 whole entry): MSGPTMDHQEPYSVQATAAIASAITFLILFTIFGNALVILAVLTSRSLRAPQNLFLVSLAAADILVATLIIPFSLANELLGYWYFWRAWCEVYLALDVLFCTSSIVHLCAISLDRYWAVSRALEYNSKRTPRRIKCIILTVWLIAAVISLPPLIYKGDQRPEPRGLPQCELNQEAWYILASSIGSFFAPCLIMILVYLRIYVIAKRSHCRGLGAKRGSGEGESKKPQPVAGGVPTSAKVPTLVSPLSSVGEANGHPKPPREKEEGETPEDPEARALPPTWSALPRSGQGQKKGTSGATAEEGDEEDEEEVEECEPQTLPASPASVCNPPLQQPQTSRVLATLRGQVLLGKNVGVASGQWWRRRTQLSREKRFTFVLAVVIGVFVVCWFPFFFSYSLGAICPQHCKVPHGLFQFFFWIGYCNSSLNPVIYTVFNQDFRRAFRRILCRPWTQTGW
T1 sequence (P22909 whole entry): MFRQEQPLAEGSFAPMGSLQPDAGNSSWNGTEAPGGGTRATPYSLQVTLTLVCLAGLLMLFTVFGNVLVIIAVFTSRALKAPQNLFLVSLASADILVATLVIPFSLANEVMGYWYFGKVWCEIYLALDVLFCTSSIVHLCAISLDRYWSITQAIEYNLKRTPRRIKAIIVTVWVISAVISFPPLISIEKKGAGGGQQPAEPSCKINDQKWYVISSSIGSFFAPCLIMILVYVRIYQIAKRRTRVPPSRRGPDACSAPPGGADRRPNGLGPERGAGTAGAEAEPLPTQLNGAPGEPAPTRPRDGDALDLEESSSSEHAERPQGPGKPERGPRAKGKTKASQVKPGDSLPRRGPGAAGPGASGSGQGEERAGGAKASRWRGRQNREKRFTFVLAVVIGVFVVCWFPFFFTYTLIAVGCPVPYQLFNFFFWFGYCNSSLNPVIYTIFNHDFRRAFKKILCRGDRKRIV
The experiment in a line: Binding affinity by its ability to displace [3H]rauwolscine radioligand from Alpha-2 adrenergic receptor on rat cerebral cortex. In kind it is tissue-based.

The target in assay [2] is T2, Adrenergic receptor alpha-1 (Rattus norvegicus, UniProt P15823+P23944+P43140).
T2 sequence (P15823 whole entry): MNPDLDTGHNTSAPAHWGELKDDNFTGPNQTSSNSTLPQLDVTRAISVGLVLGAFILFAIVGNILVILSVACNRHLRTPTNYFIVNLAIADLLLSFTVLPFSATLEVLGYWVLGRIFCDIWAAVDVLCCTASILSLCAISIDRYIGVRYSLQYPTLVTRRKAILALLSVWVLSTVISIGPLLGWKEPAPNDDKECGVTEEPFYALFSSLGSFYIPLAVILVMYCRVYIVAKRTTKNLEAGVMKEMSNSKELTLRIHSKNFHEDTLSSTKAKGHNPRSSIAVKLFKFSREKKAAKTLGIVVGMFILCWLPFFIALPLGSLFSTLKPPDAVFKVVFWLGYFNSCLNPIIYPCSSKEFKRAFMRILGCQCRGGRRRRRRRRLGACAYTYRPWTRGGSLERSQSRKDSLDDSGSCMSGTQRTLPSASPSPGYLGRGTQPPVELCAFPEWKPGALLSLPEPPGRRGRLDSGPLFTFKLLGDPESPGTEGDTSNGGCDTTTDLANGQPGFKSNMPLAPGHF
T2 sequence (P23944 whole entry): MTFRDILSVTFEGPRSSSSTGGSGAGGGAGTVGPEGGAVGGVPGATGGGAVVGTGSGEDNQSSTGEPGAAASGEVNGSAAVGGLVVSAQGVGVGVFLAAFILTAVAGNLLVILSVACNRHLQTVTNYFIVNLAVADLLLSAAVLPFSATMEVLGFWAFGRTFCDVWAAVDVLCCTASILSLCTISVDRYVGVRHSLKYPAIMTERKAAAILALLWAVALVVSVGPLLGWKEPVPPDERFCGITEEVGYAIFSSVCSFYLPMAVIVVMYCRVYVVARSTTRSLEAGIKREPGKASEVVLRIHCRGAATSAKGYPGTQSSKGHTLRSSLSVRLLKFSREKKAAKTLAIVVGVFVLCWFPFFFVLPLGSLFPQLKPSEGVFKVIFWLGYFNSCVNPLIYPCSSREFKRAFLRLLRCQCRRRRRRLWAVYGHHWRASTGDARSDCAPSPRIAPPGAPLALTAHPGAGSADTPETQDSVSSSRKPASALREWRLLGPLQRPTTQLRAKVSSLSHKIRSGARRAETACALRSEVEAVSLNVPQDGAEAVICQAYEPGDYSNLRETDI
T2 sequence (P43140 whole entry): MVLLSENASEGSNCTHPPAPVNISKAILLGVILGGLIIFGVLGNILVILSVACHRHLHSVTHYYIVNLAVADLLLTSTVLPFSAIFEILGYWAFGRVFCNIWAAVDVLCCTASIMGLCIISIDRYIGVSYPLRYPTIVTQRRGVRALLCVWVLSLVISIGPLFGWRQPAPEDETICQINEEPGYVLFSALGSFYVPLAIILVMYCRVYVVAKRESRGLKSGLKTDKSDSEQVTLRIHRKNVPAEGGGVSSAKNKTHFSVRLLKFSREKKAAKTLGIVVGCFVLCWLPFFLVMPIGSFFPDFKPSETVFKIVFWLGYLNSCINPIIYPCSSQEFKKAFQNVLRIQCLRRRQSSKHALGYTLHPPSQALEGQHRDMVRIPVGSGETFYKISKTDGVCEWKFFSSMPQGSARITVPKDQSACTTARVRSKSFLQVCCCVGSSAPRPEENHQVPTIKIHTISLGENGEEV
The experiment in a line: Binding affinity by its ability to displace [3H]prazosin radioligand from Alpha-1 adrenergic receptor on rat cerebral cortex. It counts as tissue-based.

In the case of `COc1ccccc1N1CCN(CCCCn2nc(-n3cnc4ccccc43)ccc2=O)CC1`, the Ki worked out at 0.016 µM in assay [1] and 0.0011 µM in assay [2].
For `O=c1ccc(-n2ccnc2)nn1CCCN1CCN(c2ccccc2Cl)CC1`, the values for the Ki in assay [1] and in assay [2] were 0.4366 µM and 0.0483 µM, respectively.
In the same order, the values of `COc1ccccc1N1CCN(CCCn2nc(-n3cnc4ccccc43)ccc2=O)CC1` are 0.1583 µM and 0.0065 µM.
For `O=c1ccc(-n2cnc3ccccc32)nn1CCCN1CCN(c2ccccc2Cl)CC1` the same measures were 0.0447 µM and 0.0152 µM.
For `COc1ccccc1N1CCN(CCCn2nc(-n3ccnc3)ccc2=O)CC1` the same measures were 0.6734 µM and 0.1154 µM.

For the origin of these results see ChEMBL document CHEMBL1135045, “alpha(1)-Adrenoceptor antagonists. Rational design, synthesis and biological evaluation of new trazodone-like compounds” (Bioorg Med Chem Lett, 2002).
